Results reported in patent US20220073496A1, “NOVEL QUINOLINE DERIVATIVE INHIBITOR” (Nanjing Transthera Biosciences Co., Ltd., priority 2018, published 2022).

What was measured:
H1299 cell pAxl = biological target: T1, H1299 cell pAxl (Homo sapiens, UniProt P30530); assay: Inhibitory activity on the cell pAxl (Western Blot); assay type: cell-based; settings: H1299 cells, compound 1.1, 3.3, 10, 30 nM, hGAS6 200 ng/mL
T1 construct: endogenous in cells; host or cells: H1299
T1 sequence (P30530 26-894): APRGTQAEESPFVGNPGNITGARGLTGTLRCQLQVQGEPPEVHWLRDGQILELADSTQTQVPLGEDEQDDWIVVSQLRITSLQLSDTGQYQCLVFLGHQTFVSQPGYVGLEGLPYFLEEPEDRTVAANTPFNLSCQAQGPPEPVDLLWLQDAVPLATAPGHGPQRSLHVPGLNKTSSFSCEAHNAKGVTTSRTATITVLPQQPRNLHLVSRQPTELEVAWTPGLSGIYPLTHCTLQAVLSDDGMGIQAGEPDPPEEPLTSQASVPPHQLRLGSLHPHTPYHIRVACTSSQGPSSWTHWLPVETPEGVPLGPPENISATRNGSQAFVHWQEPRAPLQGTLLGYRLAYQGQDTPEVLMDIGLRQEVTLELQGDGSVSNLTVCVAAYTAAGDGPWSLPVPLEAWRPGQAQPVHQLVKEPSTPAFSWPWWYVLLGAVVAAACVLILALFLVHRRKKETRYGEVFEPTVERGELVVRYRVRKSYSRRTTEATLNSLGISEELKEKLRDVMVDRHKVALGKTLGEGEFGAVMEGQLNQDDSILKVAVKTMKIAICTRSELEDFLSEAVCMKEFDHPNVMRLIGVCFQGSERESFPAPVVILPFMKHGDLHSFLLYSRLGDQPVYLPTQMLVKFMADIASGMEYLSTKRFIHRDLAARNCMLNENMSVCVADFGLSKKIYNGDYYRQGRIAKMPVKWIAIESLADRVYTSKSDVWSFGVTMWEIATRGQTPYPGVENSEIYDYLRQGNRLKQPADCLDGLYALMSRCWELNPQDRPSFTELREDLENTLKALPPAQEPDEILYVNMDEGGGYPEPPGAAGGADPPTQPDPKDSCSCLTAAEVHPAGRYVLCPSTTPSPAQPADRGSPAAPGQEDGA
Experimental: Assay 5: Test for Inhibitory Activities of the Compounds of the Present Invention on the Cell pAxl
(§1) H1299 is a non-small cell lung cancer cell.
(§2) Test substances: the compounds of the present invention, wherein the structures thereof were as described above.
Test equipment: protein electrophoresis apparatus (manufactured by Bio Rad), transfer unit (manufactured by Bio Rad), exposure unit (manufactured by Tanon), CO2, cell incubator (manufactured by Thermo).
The H1299 cells were inoculated in a 6-well plate (containing 10% FBS 1640 medium, 5×10^5 cells per well), and adherent cells were cultivated at 37° C. in a 5% CO2 condition for 18 hours. The cells were starved overnight. Different concentrations of compounds were added. The final compound concentrations were 1.1, 3.3, 10, and 30 nM, and the final DMSO content was 1‰. The negative control wells contained the medium containing 1‰ DMSO. After incubating at 37° C. in a 5% CO2 condition for 60 minutes, hGAS6 (R&D, final concentration 200 ng/mL) was added to each well. After further incubating for 60 minutes, the cell total protein was extracted for Western Blot and the […] values were calculated using GraphPad 5.0 software. The inhibitory activity of the compound on the cell pAxl was examined.

H1299 cell pMer = biological target: T2, H1299 cell pMer (Homo sapiens, UniProt Q12866); assay: Inhibitory activity on the cell pMer (Western Blot); assay type: cell-based; settings: H1299 cells, compound 0.35, 1.1, 3.3, 10 nM, Human MerMab 200 ng/mL
T2 construct: The H1299 cells were inoculated in a 6-well plate; endogenous in cells; host or cells: H1299
T2 sequence (Q12866 21-999): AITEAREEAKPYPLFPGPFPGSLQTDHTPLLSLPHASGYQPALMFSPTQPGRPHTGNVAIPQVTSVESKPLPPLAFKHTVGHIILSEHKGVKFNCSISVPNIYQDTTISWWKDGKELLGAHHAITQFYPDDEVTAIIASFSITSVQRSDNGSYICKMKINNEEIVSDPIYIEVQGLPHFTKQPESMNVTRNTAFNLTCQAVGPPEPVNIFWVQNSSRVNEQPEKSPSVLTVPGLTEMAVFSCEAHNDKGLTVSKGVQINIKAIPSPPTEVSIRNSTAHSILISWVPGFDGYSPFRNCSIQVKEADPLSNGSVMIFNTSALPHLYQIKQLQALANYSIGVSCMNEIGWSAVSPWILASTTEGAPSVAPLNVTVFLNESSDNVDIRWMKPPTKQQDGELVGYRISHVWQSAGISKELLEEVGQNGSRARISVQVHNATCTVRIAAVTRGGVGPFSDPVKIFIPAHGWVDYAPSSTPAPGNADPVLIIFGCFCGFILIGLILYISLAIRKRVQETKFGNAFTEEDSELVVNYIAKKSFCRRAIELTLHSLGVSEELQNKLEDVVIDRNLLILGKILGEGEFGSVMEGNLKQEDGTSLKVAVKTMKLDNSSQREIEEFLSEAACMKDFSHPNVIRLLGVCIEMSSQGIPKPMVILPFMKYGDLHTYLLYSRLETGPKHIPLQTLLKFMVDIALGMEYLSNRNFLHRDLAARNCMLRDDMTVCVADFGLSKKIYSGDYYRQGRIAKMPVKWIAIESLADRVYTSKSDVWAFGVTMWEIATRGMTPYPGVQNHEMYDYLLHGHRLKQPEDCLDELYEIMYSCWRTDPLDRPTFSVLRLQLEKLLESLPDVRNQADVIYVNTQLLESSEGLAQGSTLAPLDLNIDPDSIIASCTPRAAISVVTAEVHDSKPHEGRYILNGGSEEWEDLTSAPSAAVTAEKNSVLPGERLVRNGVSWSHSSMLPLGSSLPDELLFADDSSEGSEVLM
Experimental: Assay 6: Test for Inhibitory Activities of the Compounds of the Present Invention on the Cell pMer
as §1, §2
Test equipment: protein electrophoresis apparatus (manufactured by Bio Rad), transfer unit (manufactured by Bio Rad), exposure unit (manufactured by Tanon), CO2 cell incubator (manufactured by Thermo).
The H1299 cells were inoculated in a 6-well plate (containing 10% FBS 1640 medium, 5×10^5 cells per well), and adherent cells were cultivated at 37° C. in a 5% CO2 condition for 18 hours. The cells were starved overnight. Different concentrations of compounds were added. The final compound concentrations were 0.35, 1.1, 3.3 and 10 nM, and the final DMSO content was 1‰. The negative control wells contained the medium containing 1‰ DMSO. After incubating at 37° C. in a 5% CO2 condition for 60 minutes, Human MerMab (R&D, final concentration 200 ng/mL) was added to each well. After further incubating for 60 minutes, the cell total protein was extracted for Western Blot and the IC50 values were calculated using GraphPad 5.0 software. The inhibitory activity of the compound on the cell pMer was examined.

| SMILES | IC50 (H1299 cell pAxl) [nM] | IC50 (H1299 cell pMer) [nM] |
| --- | --- | --- |
| COc1cc2nccc(Oc3ncc(NC(=O)c4nn(C(C)C)cc(-c5ccc(F)cc5)c4=O)cn3)c2cc1OC [Compound 34, N-(2-((6,7-dimethoxyquinolin-4-yl)oxy)pyrimidine-5-yl)-5-para-fluorophenyl-1-isopropyl-4-oxo-1,4-dihydropyridazine-3-carboxamide] | < 1.1 | < 1.1 |
| COc1cc2nccc(Oc3ccc(NC(=O)c4cn(C(C)C)cc(-c5ccc(C)cc5)c4=O)nc3)c2cc1OC [Compound 1, N-(5-((6,7-dimethoxyquinolin-4-yl)oxy)pyridin-2-yl)-1-isopropyl-4-oxo-5-p-tolyl-1,4-dihydropyridin-3-carboxamide] | < 1.1 | 1.1 to 3.3 |
| COc1cc2nccc(Oc3ccc(NC(=O)c4cn(C(C)C)cc(-c5ccc(F)cc5)c4=O)nc3)c2cc1OC [Compound 14, N-(5-((6,7-dimethoxyquinolin-4-yl)oxy)pyridin-2-yl)-5-(4-fluorophenyl)-1-isopropyl-4-oxo-1,4-dihydropyridin-3-carboxamide] | < 1.1 | 0.35 |
| COc1cc2nccc(Oc3cnc(NC(=O)c4cn(C5CC5)cc(-c5ccc(F)cc5)c4=O)nc3)c2cc1OC [Compound 32, 1-cyclopropyl-N-(5-((6,7-dimethoxyquinolin-4-yl)oxy)pyrimidine-2-yl)-5-(4-fluorophenyl)-4-oxo-1,4-dihydropyridin-3-carboxamide] | < 1.1 | < 1.1 |
| COc1cc2nccc(Oc3cnc(NC(=O)c4nn(C5CC5)cc(-c5ccc(F)cc5)c4=O)nc3)c2cc1OC [Compound 33] | < 1.1 | < 1.1 |

Results, then the molecule that gave them:

| IC50 (H1299 cell pAxl) [nM] | IC50 (H1299 cell pMer) [nM] | SMILES |
| --- | --- | --- |
| < 1.1 | < 0.35 | COc1cc2nccc(Oc3ccc(NC(=O)c4nn(C5CC5)cc(-c5ccc(F)cc5)c4=O)cn3)c2cc1OC [Compound 36] |
| 3.3 | 1.1 | COc1cc2nccc(Oc3cnc(NC(=O)c4cn(C(C)C)nc(-c5ccc(F)cc5)c4=O)nc3)c2cc1OC [Compound 39, N-(5-((6,7-dimethoxyquinolin-4-yl)oxy)pyrimidine-2-yl)-6-(4-fluorophenyl)-2-isopropyl-5-oxo-2,5-dihydropyridazine-4-carboxamide] |
| 3.3 | < 1.1 | COc1cc2nccc(Oc3ccc(NC(=O)c4cn(C5CC5)nc(-c5ccc(F)cc5)c4=O)cn3)c2cc1OC [Compound 43, 2-cyclopropyl-N-(6-((6,7-dimethoxyquinolin-4-yl)oxy)pyridin-3-yl)-6-para-fluorophenyl-5-oxo-2,5-dihydropyridazine-4-carboxamide] |
| 10 |  | COc1cc2nccc(Oc3ncc(NC(=O)c4cn(C(C)C)nc(-c5ccc(F)cc5)c4=O)cn3)c2cc1OC [Compound 40, N-(2-((6,7-dimethoxyquinolin-4-yl)oxy)pyrimidine-5-yl)-6-(4-fluorophenyl)-2-isopropyl-5-oxo-2,5-dihydropyridazine-4-carboxamide] |
| < 1.1 | < 0.37 | COc1cc2nccc(Oc3ccc(NC(=O)c4nn(C5CC5)cc(-c5ccc(C)cc5)c4=O)nc3)c2cc1OC [Compound 46, 1-cyclopropyl-N-(5-((6,7-dimethoxyquinolin-4-yl)oxy)pyridin-2-yl)-4-oxo-5-p-tolyl-1,4-dihydropyridazine-3-carboxamide] |
| 1.1 | < 1.1 | COc1cc2nccc(Oc3cnc(NC(=O)c4cn(C5CC5)nc(-c5ccc(F)cc5)c4=O)nc3)c2cc1OC [Compound 45, 2-cyclopropyl-N-(5-((6,7-dimethoxyquinolin-4-yl)oxy)pyrimidine-2-yl)-6-(4-fluorophenyl)-5-oxo-2,5-dihydropyridazine-4-carboxamide] |
| 3.3 |  | COc1cc2nccc(Oc3ccc(NC(=O)c4cn(C(C)C)nc(-c5ccc(F)cc5)c4=O)cn3)c2cc1OC [Compound 38, N-(6-((6,7-dimethoxyquinolin-4-yl)oxy)pyridin-3-yl)-6-para-fluorophenyl-2-isopropyl-5-oxo-2,5-dihydropyridazine-4-carboxamide] |
